pIC50: −log10 of the molar value. Bounds are passed on as bounds.

This is an account of results in patent publication US8563542B2 (Cyclacel Limited, priority 2007, dated 2013).

The target in the assay is PLK1 (Homo sapiens, UniProt P53350). The experiment in a line: PLK1 protein kinase assay (CDC25C phosphorylation, [γ-32P]-ATP). It is filed as biochemical. The settings on record: Table 2, PLK1 IC50; class symbols; read-out: PLK1 IC50.
PLK1, sequence (P53350 whole entry): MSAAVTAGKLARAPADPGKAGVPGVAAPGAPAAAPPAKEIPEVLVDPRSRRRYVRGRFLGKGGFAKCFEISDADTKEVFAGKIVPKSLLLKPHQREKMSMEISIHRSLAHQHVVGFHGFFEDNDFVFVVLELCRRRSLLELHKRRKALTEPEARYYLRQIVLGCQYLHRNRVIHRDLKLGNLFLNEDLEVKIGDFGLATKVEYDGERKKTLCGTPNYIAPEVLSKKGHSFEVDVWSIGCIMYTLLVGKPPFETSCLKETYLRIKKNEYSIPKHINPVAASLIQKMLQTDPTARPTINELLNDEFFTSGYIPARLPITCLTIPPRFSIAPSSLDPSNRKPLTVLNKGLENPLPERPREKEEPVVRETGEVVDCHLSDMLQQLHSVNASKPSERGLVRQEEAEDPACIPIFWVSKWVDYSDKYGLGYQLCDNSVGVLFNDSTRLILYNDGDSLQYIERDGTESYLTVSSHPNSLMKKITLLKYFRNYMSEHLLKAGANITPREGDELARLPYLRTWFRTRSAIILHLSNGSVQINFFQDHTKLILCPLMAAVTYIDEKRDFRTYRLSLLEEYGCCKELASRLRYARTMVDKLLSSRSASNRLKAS
A word on the pIC50: it is −log10 of the IC50, conventionally taken in molar units. Take `COc1cc(C(=O)NC2CCN(C(C)=O)CC2)ccc1Nc1ncc2c(n1)N(C1CCCC1)CCC(=O)N2C` [compound 210, N-(1-Acetyl-piperidin-4-yl)-4-(9-cyclopentyl-5-methyl-6-oxo-6,7,8,9-tetrahydro-5H-pyrimido[4,5-b][1,4]diazepin-2-ylamino)-3-methoxy-benzamide]: the pIC50 was more than 6.00.

Turning to `CCOC(=O)CN1CCC(NC(=O)c2ccc(Nc3ncc4c(n3)N(C3CCCC3)CCC(=O)N4C)c(OC)c2)CC1` [compound 211, {4-[4-(9-Cyclopentyl-5-methyl-6-oxo-6,7,8,9-tetrahydro-5H-pyrimido[4,5-b][1,4]diazepin-2-ylamino)-3-methoxy-benzoylamino]-piperidin-1-yl}-acetic acid ethyl ester], the pIC50 was more than 6.00.

With `COc1cc(C(=O)NC2CCN(C(=O)c3ccccc3)CC2)ccc1Nc1ncc2c(n1)N(C1CCCC1)CCC(=O)N2C` [compound 212, N-(1-Benzoyl-piperidin-4-yl)-4-(9-cyclopentyl-5-methyl-6-oxo-6,7,8,9-tetrahydro-5H-pyrimido[4,5-b][1,4]diazepin-2-ylamino)-3-methoxy-benzamide], the pIC50 is more than 6.00.

`CN1CCC(NC(=O)c2ccc(Nc3ncc4c(n3)N(C3CCCC3)CCC(=O)N4C)c(Cl)c2)CC1` [compound 214, 3-Chloro-4-(9-cyclopentyl-5-methyl-6-oxo-6,7,8,9-tetrahydro-5H-pyrimido[4,5-b][1,4]diazepin-2-ylamino)-N-(1-methyl-piperidin-4-yl)-benzamide]: the pIC50 is more than 7.00.

Take `CN1CCC(NC(=O)c2ccc(Nc3ncc4c(n3)N(C3CCCC3)CCC(=O)N4C)c(OC(F)(F)F)c2)CC1` [compound 216, 4-(9-Cyclopentyl-5-methyl-6-oxo-6,7,8,9-tefrahydro-5H-pyrimido[4,5-b][1,4]diazepin-2-ylamino)-N-(1-methyl-piperidin-4-yl)-3-trifluoromethoxy-benzamide]: the pIC50 is more than 6.00.

Consider `COc1cc(C(=O)NC2CCN(Cc3ccccc3)CC2)ccc1Nc1ncc2c(n1)N(C1CCCC1)CC1(CCC1)C(=O)N2C` [compound 217, 4-(9-Cyclopentyl-5-methyl-6-oxo-6,7,8,9-tetrahydro-5H-spiro[pyrimido[4,5-b][1,4]diazepin-3,1′-cyclobutane]-2-ylamino)-3-methoxy-N-(1-benzylpiperidin-4-yl)-benzamide], for which the pIC50 is more than 6.00.

As for `CCN(CC)CCNC(=O)c1ccc(Nc2ncc3c(n2)N(C2CCCC2)CC2(CCC2)C(=O)N3C)c(OC)c1` [compound 219, 4-(9-Cyclopentyl-5-methyl-6-oxo-6,7,8,9-tetrahydro-5H-spiro[pyrimido[4,5-b][1,4]diazepin-3,1′-cyclobutane]-2-ylamino)-N-(2-diethylamino-ethyl)-3-methoxy-benzamide], the pIC50 was more than 7.00.

As to `COc1cc(C(=O)NCc2ccco2)ccc1Nc1ncc2c(n1)N(C1CCCC1)CC1(CCC1)C(=O)N2C` [compound 222, 4-(9-Cyclopentyl-5-methyl-6-oxo-6,7,8,9-tetrahydro-5H-spiro[pyrimido[4,5-b][1,4]diazepin-3,1′-cyclobutane]-2-ylamino)-N-furan-2-ylmethyl-3-methoxy-benzamide], the pIC50 was more than 6.00.

As for `COc1cc(C(=O)NC2CCN(C)CC2)ccc1Nc1ncc2c(n1)N(CCC(=O)NCCO)CCC(=O)N2C` [compound 223, 4-{9-[2-(2-Hydroxy-ethylcarbamoyl)-ethyl]-5-methyl-6-oxo-6,7,8,9-tetrahydro-5H-pyrimido[4,5-b][1,4]diazepin-2-ylamino}-3-methoxy-N-(1-methyl-piperidin-4-yl)-benzamide], the pIC50 is more than 5.00.

In the case of `CNC(=O)CCN1CCC(=O)N(C)c2cnc(Nc3ccc(C(=O)NC4CCN(C)CC4)cc3OC)nc21` [compound 224, 3-Methoxy-4-[5-methyl-9-(2-methylcarbamoyl-ethyl)-6-oxo-6,7,8,9-tetrahydro-5H-pyrimido[4,5-b][1,4]diazepin-2-ylamino]-N-(1-methyl-piperidin-4-yl)-benzamide], the pIC50 is more than 6.00.

As to `COc1cc(C(=O)NC2CCN(C)CC2)ccc1Nc1ncc2c(n1)N(CCC(=O)N(C)C)CCC(=O)N2C` [compound 225, 4-[9-(2-Dimethylcarbamoyl-ethyl)-5-methyl-6-oxo-6,7,8,9-tetrahydro-5H-pyrimido[4,5-b][1,4]diazepin-2-ylamino]-3-methoxy-N-(1-methyl-piperidin-4-yl)-benzamide], the pIC50 was more than 6.00.

Turning to `COc1cc(C(=O)NC2CCN(C)CC2)ccc1Nc1ncc2c(n1)N(CCC(=O)NCCCN(C)C)CCC(=O)N2C` [compound 226, 4-{9-[2-(3-Dimethylamino-propylcarbamoyl)-ethyl]-5-methyl-6-oxo-6,7,8,9-tetrahydro-5H-pyrimido[4,5-b][1,4]diazepin-2-ylamino}-3-methoxy-N-(1-methyl-piperidin-4-yl)-benzamide], the pIC50 is more than 6.00.

Regarding `CN1CCC(NC(=O)c2ccc(Nc3ncc4c(n3)N(C3CCCC3)CCC(=O)N4C)c(O)c2)CC1` [compound 228, 4-(9-Cyclopentyl-5-methyl-6-oxo-6,7,8,9-tetrahydro-5H-pyrimido[4,5-b][1,4]diazepin-2-ylamino)-3-hydroxy-N-(1-methyl-piperidin-4-yl)-benzamide], the pIC50 was more than 7.00.

Regarding `CCc1cc(C(=O)O)ccc1Nc1ncc2c(n1)N(C1CCCC1)CC1(CC1)C(=O)N2C` [compound 229, 4-(9-Cyclopentyl-5-methyl-6-oxo-6,7,8,9-tetrahydro-5H-pyrimido[4,5-b][1,4]diazepin-3,1′-cyclopropane-2-ylamino)-acid], the pIC50 was more than 6.00.

With `COc1cc(C(=O)O)ccc1Nc1ncc2c(n1)N(CC1CC1)CC1(CC1)C(=O)N2C` [compound 230, 4-(9-Cyclopropylmethyl-5-methyl-6-oxo-6,7,8,9-tetrahydro-5H-pyrimido[4,5-b][1,4]diazepin-3,1′-cyclopropane-2-ylamino)-3-methoxy-benzoic acid], the pIC50 was more than 6.00.

On to `CCN(CC)CCNC(=O)c1ccc(OC)c(Nc2ncc3c(n2)N(C2CCCC2)CCC(=O)N3C)c1` [compound 231, 3-(9-Cyclopentyl-5-methyl-6-oxo-6,7,8,9-tetrahydro-5H-pyrimido[4,5-b][1,4]diazepin-2-ylamino)-N-(2-diethylamino-ethyl)-4-methoxy-benzamide], for which the pIC50 is more than 6.00.

`COc1ccc(C(=O)NCCCN(C)C)cc1Nc1ncc2c(n1)N(C1CCCC1)CCC(=O)N2C` [compound 232, 3-(9-Cyclopentyl-5-methyl-6-oxo-6,7,8,9-tetrahydro-5H-pyrimido[4,5-b][1,4]diazepin-2-ylamino)-N-(3-dimethylamino-propyl)-4-methoxy-benzamide]: the pIC50 was more than 6.00.

For the compound `COc1ccc(C(=O)NCCCO)cc1Nc1ncc2c(n1)N(C1CCCC1)CCC(=O)N2C` [compound 233, 3-(9-Cyclopentyl-5-methyl-6-oxo-6,7,8,9-tetrahydro-5H-pyrimido[4,5-b][1,4]diazepin-2-ylamino)-N-(3-hydroxy-propyl)-4-methoxy-benzamide], the pIC50 is more than 6.00.

With `COc1ccc(C(=O)NC(C)(C)CN2CCCCC2)cc1Nc1ncc2c(n1)N(C1CCCC1)CCC(=O)N2C` [compound 234, 3-(9-Cyclopentyl-5-methyl-6-oxo-6,7,8,9-tetrahydro-5H-pyrimido[4,5-b][1,4]diazepin-2-ylamino)-N-(1,1-dimethyl-2-piperidin-1-yl-ethyl)-4-methoxy-benzamide], the pIC50 was more than 5.00.
